In patent US7919519B2, “S1P receptor modulating compounds and use thereof” (Epix Pharmaceuticals Inc., priority 2005, dated 2011):
pEC50: −log10 of the molar value.

Biological target: T1, hS1P1 (Homo sapiens, UniProt P21453)
T1 construct: expressed in transfected cells
Assay: hS1P1 EC50 (S1P receptor Ca2+ flux protocol, CHO K1 Gqi5 cells)
Type: cell-based
Experimental: S1P receptor activity may also be measured by an S1P receptor (e.g., hS1P1, hS1P3, rS1P1, rS1P3 and parental cell) Ca^2+ Flux protocol as described below:
1. Material • a. FLIPR buffer: 1×HBSS; 10 mM HEPES • b. Cell growth media: • i. human and rat S1P1 and S1P3: F12-Ham's media; 10% FBS (qualified); 1× Pen/Strep/Glu; 300 ug/mL Hygromycin; 400 ug/mL Geneticin • ii. Parental cell: human and rat S1P1 and S1P3: F12-Ham's media; 10% FBS (qualified); 1× Pen/Strep/Glu; 300 ug/mL Hygromycin; • c. Cell seeding media; F12-Ham's media; 10% FBS (Charcoal/dextran stripped); 1× Pen/Strep/Glu; • d. Cell dissociation buffer: Versene from Invitrogen • e. Agonist (S1P) dissolving buffer: 0.4% (w/v) fatty-acid free BSA (Sigma #A8806) in FLIPR buffer • f. FLIPR dye: BD PBX Calcium assay kit; Cat#641077 is composed of Calcium indicator (Cat#850000) and 100×PBX signal enhancer (cat#850001). The 100×PBX signal enhancer is diluted into FLIPR buffer 1:100 and the calcium indicator is then added at 1:1000 ratio. • g. Cell plates (96-well): Greiner Cat#655090 • h. Compound plates (96-well): Costar #3365 • i. S1P stock solution preparation: S1P is purchased from CalBioChem (Catalog #970471; 1 mg vial; custom prep using methanol, & nitrogen gas drying inside glass vial; Storage @ −20° C.). Dissolve 1 vial of S1P into 26.4 ml of agonist dissolving buffer in a 50 ml centrifuge tube; Remove label from bottle of S1P, open and drop entire bottle into tube. Sonicate at 37° for ½ hour. Clear solution of 100 μM will result. This stock solution is aliquoted and stored at −80 C
2. Cell line maintenance • a. V5 tags were added at the N-terminus of hS1P1, hS1P3, rS1P1 and rS1P3. All four genes were transfected into CHO K1 cells which stably express Gqi5. • b. hS1P1 and hS1P3 were established as stable clones and rS1P1 and rS1P3 were sorted by anti V5 tag and established as stable pools after sorting. • c. Parental cell line CHO/K1 Gqi5 is used as the control. • d. All the cells are maintained in cell growth media and splitted twice a week using Versene. • e. All the cell lines are used under passage 30.
3. Assay protocol • a. Cell seeding: Cells are lifted from the flask by Versene and seeded in cell plates at 50K/well in cell seeding media. Cells are grown overnight at 37 degree. • b. Cell loading: Cell seeding media is discarded. Cells are loaded with 50 ul of FLIPR dye at RT for 90 min. Signal is stable for up to 5 h after dye loading. • c. Agonist (S1P) preparation: Frozen stock of S1P is thawed out and sonicated at 37 c for 30 minutes every time before use. The stock is then diluted into FLIPR buffer at proper concentration. • d. Compound preparation: Compounds are dissolved in DMSO. A 3×, 10 point dilution of the compounds are carried out in DMSO. Then the compounds are diluted into assay buffer 133× so that the DMSO concentration is 0.75%. • e. Activity measurement: The fluorescence signal change of the cells upon compound addition is monitored in FLIPRtetra. 25 ul of compound is transferred into the cell plates (50 ul of FLIPR dye; DMSO concentration: 0.25%). Signal is recorded for 90 sec after compound addition. Then 50 ul of 500 nM S1P is added in the cell plate, and signal is recorded for 90 seconds upon addition.
4. Data analysis • a. Peak value is calculated for each compound/S1P addition • b. The peak value of S1P at 200 nM is used as high control (100%), and the peak value of buffer only is used as low control (0%). • c. Data is normalized against high and low controls using the following equation: POC—S=100*(RAW−LO)/(HI−LO) • d. Peak value is plotted against the concentration of compound. • e. Curve is fitted using the 4 parameter fit: Y=(A+(B/(1+((x/C)^D)))) • where: • Y is POC_S (or POC) • X is compound concentration • A is the minimum (EC50min or IC50min) • B is the maximum (EC50max or IC50max) • C is the inflection point (EC50IP or IC50IP) • D is the hill slope (EC50 slope or IC50 slope).

T1 sequence (P21453 whole entry): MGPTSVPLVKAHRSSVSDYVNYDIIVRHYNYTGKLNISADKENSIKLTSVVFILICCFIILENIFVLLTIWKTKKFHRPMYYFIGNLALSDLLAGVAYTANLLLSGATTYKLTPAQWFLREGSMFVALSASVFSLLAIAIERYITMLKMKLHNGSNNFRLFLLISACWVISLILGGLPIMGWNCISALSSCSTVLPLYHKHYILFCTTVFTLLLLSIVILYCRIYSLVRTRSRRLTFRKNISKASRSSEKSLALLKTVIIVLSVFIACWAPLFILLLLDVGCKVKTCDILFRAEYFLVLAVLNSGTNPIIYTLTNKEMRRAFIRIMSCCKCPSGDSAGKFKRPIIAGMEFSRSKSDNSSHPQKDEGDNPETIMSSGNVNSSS

Row | Compound | pEC50
1 | O=C(O)C1CCN(Cc2ccc(-c3cc4cc(C5CCCCC5)ccc4o3)cc2)CC1 [Compound 7, 1-(4-(5-cyclohexylbenzofuran-2-yl)benzyl)piperidine-4-carboxylic acid] | < 4.60
2 | O=C(O)C1CCN(Cc2ccc(-c3cc4cc(Cc5ccccc5)ccc4o3)cc2)CC1 [Compound 9, 1-((4-(5-Benzylbenzofuran-2-yl)phenyl)methyl)piperidine-4-carboxylic acid] | ≤ 4.60
3 | CC(C)Cc1ccc2oc(-c3ccc(CN4CCC(C(=O)O)CC4)cc3)cc2c1 [Compound 13, 1-(4-(5-isobutylbenzofuran-2-yl)benzyl)piperidine-4-carboxylic acid] | < 4.60
4 | CCCCOc1ccc2cc(-c3ccc(CN4CC(C(=O)O)C4)cc3)oc2c1 [Compound 21, 1-((4-(6-Butoxybenzofuran-2-yl)phenyl)methyl)azetidine-3-carboxylic acid] | 6.70
5 | CCCCOc1ccc2oc(-c3ncc(CN4CC(C(=O)O)C4)s3)cc2c1 [Compound 22, 1-((2-(5-butoxybenzofuran-2-yl)thiazol-5-yl)methyl)azetidine-3-carboxylic acid] | 5.96
6 | CCCCOc1ccc2oc(-c3ccc(CN4CC(C(=O)O)C4)cc3F)cc2c1 [Compound 23, 1-((4-(5-Butoxybenzofuran-2-yl)3-fluorophenyl)methyl)azetidine-3-carboxylic acid] | 6.28
7 | O=C(O)C1CN(Cc2ccc(-c3cc4cc(-c5cccs5)ccc4o3)cc2)C1 [Compound 28, 1-((4-(5-(thiophen-2-yl)benzofuran-2-yl)phenyl)methyl)azetidine-3-carboxylic acid] | ≤ 4.60

Next, values leading:

Row | pEC50 | Compound
8 | < 4.60 | CCCCc1ccc2oc(-c3ccc(CN4CCC(C(=O)O)CC4)cc3)cc2c1 [Compound 8, 1-((4-(5-Butylbenzofuran-2-yl)phenyl)methyl)piperidine-4-carboxylic acid]
9 | ≤ 4.60 | O=C(O)C1CN(Cc2ccc(-c3cc4cc(CCc5ccccc5)ccc4o3)cc2)C1 [Compound 11, 1-((4-(5-phenethylbenzofuran-2-yl)phenyl)methyl)azetidine-3-carboxylic acid]
10 | < 4.60 | CC(C)(CC(=O)O)NCc1ccc(-c2cc3cc(Cc4ccccc4)ccc3o2)c(F)c1 [Compound 46, 3-((4-(5-Benzylbenzofuran-2-yl)-3-fluorophenyl)methylamino)-3-methylbutanoic acid]
